Data reported in publication PMC3401608 (Journal of Medicinal Chemistry, 2012).
Like-named read-outs stand apart in the source and are kept apart here.

Legend:
[1] = target: human cloned 5-HT6 receptors (Homo sapiens, UniProt P50406); test: 5-HT6R radioligand competition binding assays
postmenopausal women = settings: 120 mg/day, but not 60 mg/day; cited from earlier work

Chain of human cloned 5-HT6 receptors (P50406 whole entry): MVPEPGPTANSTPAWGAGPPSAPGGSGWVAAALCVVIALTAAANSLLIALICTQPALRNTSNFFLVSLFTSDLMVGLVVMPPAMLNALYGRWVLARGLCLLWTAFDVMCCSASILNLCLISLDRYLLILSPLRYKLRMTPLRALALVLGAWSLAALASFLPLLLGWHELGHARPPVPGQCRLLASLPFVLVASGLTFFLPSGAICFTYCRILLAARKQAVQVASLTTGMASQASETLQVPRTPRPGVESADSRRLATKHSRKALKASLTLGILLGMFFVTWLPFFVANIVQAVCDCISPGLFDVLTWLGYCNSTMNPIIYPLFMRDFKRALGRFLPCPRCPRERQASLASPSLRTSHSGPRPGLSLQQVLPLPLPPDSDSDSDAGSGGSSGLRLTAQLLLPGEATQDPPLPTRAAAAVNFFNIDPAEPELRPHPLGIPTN

SMILES | Ki ([1]; 5-HT6R, Table 6, unit inferred) | Risk of cognitive impairment (postmenopausal women) | Ki [1]
O=c1cc(N2CCOCC2)oc2c(-c3ccccc3)cccc12 [Compound 7] | > 10 µM |  | 
O=C(c1ccc(OCCN2CCCCC2)cc1)c1c(-c2ccc(O)cc2)sc2cc(O)ccc12 [Compound 10, raloxifene] |  | reduced risk of cognitive impairment | 
CC(NCCC(c1ccccc1)c1ccccc1)c1ccccc1 (stereo not drawn) [Compound 5] | > 10 µM |  | > 10 µM
COc1ccccc1N1CCN(CCCCNC(=O)c2ccc3ccccc3c2)CC1 [Compound 9] | > 10 µM |  | > 10 µM
